Patent US20070286886A1, “Materials And Methods For Inducing Apoptosis In Adipocytes” (University of Tennessee Research Foundation, priority 2004, published 2007)

Key:
[1] = test system: 3T3-L1 and UCP2-transfected 3T3-L1 adipocytes; assay: Cytosolic/intracellular calcium (fura-2 dual-wavelength fluorescence imaging) in adipocytes; type: cell-based; details: 3T3-L1 cells; data not shown
caspase-3 = assay: Caspase-3 mRNA expression by real-time PCR in 3T3-L1 and UCP2-transfected 3T3-L1 adipocytes; type: cell-based
Experimental: (§1) 3T3-L1 preadipocytes were incubated at a density of 8000 cells/cm2 (10 cm2 dish) and grown in Dulbecco's modified Eagle's medium (DMEM) containing 10% FBS and antibiotics (adipocyte medium) at 37° C. in 5% CO2 in air. Confluent preadipocytes were induced to differentiate with a standard differentiation medium consisting of DMEM-F10 (1:1, vol/vol) medium supplemented with 1% FBS, 1 μM dexamethasone, IBMX (0.5 mM), and antibiotics (1% penicillin-streptomycin). Preadipocytes were maintained in this differentiation medium for 3 days and subsequently cultured in adipocyte medium. Cultures were re-fed every 2-3 days to allow 90% cells to reach full differentiation before they were chemically treated. Chemicals were freshly diluted in adipocyte medium before treatment. Cells were washed with fresh adipocyte medium, re-fed with medium containing the different treatments, and incubated at 37° C. in 5% CO2 in air before analysis. Cell viability was measured via trypan blue exclusion.
UCP2 full-length cDNAs were amplified by […] using mRNAs isolated from mouse white adipose tissues. The PCR primers for this amplification are shown as follows: UCP2 forward, 5′-[…]-3′, reverse, 5′-[…]-3′. The PCR products were then subcloned into pcDNA4/His expression vectors. The linearized constructs were transfected into 3T3-L1 preadipocytes using lipofectamine plus standard protocol (Invitrogen, Carlsbad, Calif.). After 48 h of transfection, cells were split and cultured in selective medium containing 400 ug/ml zeocin for the selection of resistant colonies. Cells were fed with selective medium every 3 days until resistant colonies could be identified. These resistant foci were picked, expanded, tested for expression, and frozen for future experiments.
A total cellular RNA isolation kit (Ambion, Austin, Tex.) was used to extract total RNA from 3T3-L1 cells according to the manufacturer's instructions.
Adipocyte caspase-1, caspase-3, Bcl-2, and Bax mRNA were quantitatively measured using a Smart Cycler Real Time PCR System (Cepheid, Sunnyvale, Calif.) with a TaqMan 1000 Core Reagent Kit (Applied Biosystems, Branchburg, N.J.). The primers and probe sets were ordered from Applied Biosystems TaqMan Assays-on-Demand Gene Expression primers and probe set collection according to the manufacturer's instructions. Pooled 3T3-L1 adipocyte total RNA was serial-diluted in the range of 1.5625-25 ng and used to establish a standard curve; total RNAs for unknown samples were also diluted in this range. Reactions of quantitative RT-PCR for standards and unknown samples were Cepheid, Sunnyvale, Calif.) and TaqMan Real Time PCR Core Kit. The mRNA quantitation for each sample was further normalized using the corresponding 18 s quantitation, with a forward primer, 5′-[…]-3′, and a reverse primer, 5′-[…]-3′.
3T3-L1 preadipocytes were incubated at a density of 8000 cells/cm2 (10 cm2 dish) and grown in Dulbecco's modified Eagle's medium (DMEM) containing 10% FBS and antibiotics at 37° C. in 5% CO2. Confluent preadipocytes were induced to differentiate with a standard differentiation medium consisting of DMEM-F 10 (1:1, vol/vol) medium supplemented with 1% FBS, 1 μM dexamethasone, IBMX (0.5 mM) and antibiotics (1% penicillin/streptomycin). Preadipocytes were maintained in this differentiation medium for 3 days and subsequently cultured in adipocyte medium. Cultures were re-fed every 2-3 days to allow 90% cells to reach fully differentiation before conducting chemical treatment. Chemicals were freshly diluted in adipocyte medium before treatment. Cells were washed with fresh adipocyte medium, re-fed with medium containing the different treatments, and incubated at 37° C. in 5% CO2 in air before analysis. Cell viability was measured via trypan blue exclusion.
Adipocytes were incubated with adipocyte medium for 24 h with or without GDP, BK 8644, GDP plus BK8644 before total RNA extraction. […]

[2] = test system: 3T3-L1 and UCP2-transfected 3T3-L1 cells; assay: Mitochondrial membrane potential (JC-1 fluorometry) in adipocytes; type: cell-based; details: for increase in mitochondrial potential: p<0.05
Experimental: Adipocytes were incubated with adipocyte medium for 4 h with or without 1α,25-(OH)2-D3. Mitochondrial membrane potential was analyzed fluorometrically with a lipophilic cationic dye JC-1 (5,5′,6,6′-tetrachloro-1,1′,3,3′-tetraethylbenzimidazol carbocyanine iodide) using a mitochondrial potential detection kit (Biocarta, San Diego, Calif.). Mitochondrial potential was determined as the ratio of red fluorescence (excitation 550 nm, emission 600 nm) and green fluorescence (excitation 485 nm, emission 535 nm) using a fluorescence microplate reader.
Adipocytes were incubated with adipocyte medium for 4 h with or without GDP, BK 8644, GDP plus BK8644. Mitochondrial membrane potential was analyzed fluorometrically with a lipophilic cationic dye JC-1 (5,5′,6,6′-tetrachloro-1,1′,3,3′-tetraethylbenzimidazol carbocyanine iodide) using a mitochondrial potential detection kit (Biocarta, San Diego, Calif.). Mitochondrial potential was determined as the ratio of red fluorescence (excitation 550 nm, emission 600 nm) and green fluorescence (excitation 485 nm, emission 535 nm) using a fluorescence microplate reader.

UCP2 = UCP2 expression in 3T3-L1 cells (western blot, UCP2/actin); type: cell-based, mouse; details: siRNA transfected 3T3-L1 cells, 48 hrs after transfection
Experimental: Duplex siRNA corresponding to UCP2 gene was designed and chemically synthesized by Invitrogen. The following gene-specific sequences were used successfully: Si-UCP2 sense 5′-GCCUCUACGACUCUGUCAA-3′ and antisense […]. Transfection of siRNA was performed with Oligofectamine™ reagent (Invitrogen Life Technologies, CA) in 6-well plates. Briefly, Oligofectamine diluted in DMEM was applied to the duplex siRNA mixture, and the formulation was continued for 20 min to allow the Oligofectamine-oligonucleotide complex to form. Per well, 800 μl of plating medium and 10 ul of 20 μM duplex siRNA duplex siRNA formulated with 4 μl of Oligofectamine were applied in a final volume of 1 ml. Cells were then incubated at […] in a CO2 incubator for 4 hrs. […]
Adipocytes were harvested and sonicated in a homogenization buffer containing 50 mM Tris-HCl (PH 7.4), 250 mM sucrose, 1 mM EDTA, 1 mM dithiothreitol, 1% (v/v) Triton X, 10% protease cocktail (Sigma). […] Homogenate intrafranatant protein from equal numbers of cells (determined via protein quantitation using Bradford method as described previously) was boiled in Laemmli sample buffer and subject to 10% SDS-polyacrylamide gel electrophoresis (PAGE). […] Visualization was detected with chemiluminescence reagent, using the Western Blotting Luminal Reagent (Santa Cruz Biotechnology, CA).

caspase-1 = assay: Caspase-1 mRNA expression by real-time PCR in 3T3-L1 and UCP2-transfected 3T3-L1 adipocytes; type: cell-based; details: DNP 25 μM and 50 μM, 24 h; P<0.05
Experimental: as §1
(§2) UCP2 full-length cDNAs were amplified by […] using mRNAs isolated from mouse white adipose tissues. The PCR primers for this amplification are shown as follows: UCP2 forward, 5′-[…]-3′, reverse, 5′-[…]-3′. The PCR products were then subcloned into pcDNA4/His expression vectors. The linearized constructs were transfected into 3T3-L1 preadipocytes using lipofectamine plus standard protocol (Invitrogen, Carlsbad, Calif.). After 48 h of transfection, cells were split and cultured in selective medium containing 400 ug/ml zeocin for the selection of resistant colonies. […]
(§3) Adipocyte caspase-1, caspase-3, Bcl-2, and Bax mRNA were quantitatively measured using a Smart Cycler Real Time PCR System (Cepheid, Sunnyvale, Calif.) with a TaqMan 1000 Core Reagent Kit (Applied Biosystems, Branchburg, N.J.). […] Reactions of quantitative RT-PCR for standards and unknown samples were Cepheid, Sunnyvale, Calif.) and TaqMan Real Time PCR Core Kit. The mRNA quantitation for each sample was further normalized using the corresponding 18 s quantitation, with a forward primer, 5′-[…]-3′, and a reverse primer, 5′-[…]-3′.

Bcl-2/Bax = Bcl-2/Bax expression ratio by real-time PCR in 3T3-L1 and UCP2-transfected 3T3-L1 adipocytes; type: cell-based; details: DNP 25 μM and 50 μM, 24 h; P<0.02
Experimental: as §1, §2, §3

[3] = siRNA transfected 3T3-L1 cells (UCP2 ko) vs control

Nc1nc2c(ncn2[C@@H]2O[C@H](COP(=O)(O)OP(=O)(O)O)[C@@H](O)[C@H]2O)c(=O)[nH]1 [GDP, guanosine 5′-diphosphate]
[Ca2+]i level [1]: decreased
suppression of caspase-3 expression in BK8644 pretreated cells (caspase-3; 3T3-L1 cells pretreated with BK8644, p<0.05): 45%
increase in mitochondrial potential ([2]; 100 μM, 3T3-L1 cells, 4 h): 27%
increase in mitochondrial potential ([2]; 500 μM, 3T3-L1 cells, 4 h): 48%
mitochondrial potential ([2]; 3T3-L1 cells, GDP): increased

siRNA: duplex siRNA corresponding to UCP2 gene, sense 5′-GCCUCUACGACUCUGUCAA-3′ (antisense UUGACAGAGUCGAGGC; chemistry not given here)
decrease in caspase-3 expression (caspase-3; [3]): 58%
decrease in UCP2 expression (UCP2): 70%
increase in mitochondrial potential [2, 3]: 52%

O=[N+]([O-])c1ccc(O)c([N+](=O)[O-])c1 [DNP, 2,4-dinitrophenol]
basal caspase-1 expression level compared with control cells (caspase-1): significantly higher
basal caspase-3 expression level compared with control cells (caspase-3; DNP 25 μM and 50 μM, 24 h, P<0.05): significantly higher
Bcl-2/Bax ratio versus nontransfected 3T3-L1 cells (Bcl-2/Bax): significantly lower
